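Each compound was tested at five concentrations against cells in 96-well plates for 48 hours. Abbreviation: GI50, concentration required for 50% inhibition of growth. TGI marks complete inhibition of growth.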
Legend:
Test in all cases: NCI anticancer screen, dose series, 48 h
K-562 leukemia = system: K-562 leukemia
RPMI-8226 leukemia = system: RPMI-8226 leukemia
KM12 colon = system: KM12 colon
OVCAR-5 ovarian = system: OVCAR-5 ovarian
MDA-MB-435 = system: MDA-MB-435
UO-31 renal = system: UO-31 renal
NCI-H23 lung = system: NCI-H23 lung
COLO 205 colon = system: COLO 205 colon
NCI-H460 lung = system: NCI-H460 lung
SK-OV-3 ovarian = system: SK-OV-3 ovarian

Structure (SMILES)	GI50 (K-562 leukemia)	TGI (K-562 leukemia)	GI50 (RPMI-8226 leukemia)	TGI (RPMI-8226 leukemia)	GI50 (KM12 colon)	TGI (KM12 colon)	GI50 (OVCAR-5 ovarian)	TGI (OVCAR-5 ovarian)	GI50 (MDA-MB-435)	TGI (MDA-MB-435)	GI50 (UO-31 renal)	TGI (UO-31 renal)	GI50 (NCI-H23 lung)	TGI (NCI-H23 lung)	GI50 (COLO 205 colon)	TGI (COLO 205 colon)	GI50 (NCI-H460 lung)	TGI (NCI-H460 lung)	GI50 (SK-OV-3 ovarian)	TGI (SK-OV-3 ovarian)
COc1cccc(/C=C/C(=O)c2ccc(SC)cc2)c1OC	4.97 µM	64.2 µM	5.6 µM	> 100 µM	16.6 µM	33.4 µM	18.7 µM	34.2 µM	17.8 µM	35.3 µM	17 µM	31.1 µM	14.6 µM	28.2 µM	22.6 µM	45 µM	17.9 µM	36.2 µM	23.5 µM	40.6 µM
CC1(C)S[C@@H]2[C@H](N3C(=O)c4ccccc4C3=O)CN2[C@H]1NC(=O)N[C@@H]1N2C[C@@H](N3C(=O)c4ccccc4C3=O)[C@H]2SC1(C)C		> 100 µM		> 100 µM		> 100 µM		> 100 µM		> 100 µM		> 100 µM		> 100 µM		> 100 µM		> 100 µM		> 100 µM
COc1ccc(C=Nc2c(C(=O)Nc3cccc(Cl)c3C)sc3nc(C)c(C(=O)/C=C/c4ccc(OC)cc4)cc23)cc1	0.259 µM	> 50 µM	1.5 µM	> 50 µM	0.894 µM	> 43.9 µM	2.04 µM	> 50 µM	0.103 µM	0.227 µM	2.04 µM	> 50 µM	0.917 µM	17.1 µM	1.82 µM	23.8 µM	1.93 µM	> 29.7 µM	0.958 µM	> 50 µM
O=C(CC1(O)C(=O)N(Cc2ccccc2)c2ccc(Cl)cc21)c1ccc(C(=O)NCC2CCC3(CC2)OOC2(CCCCC2)OO3)cc1 (stereo not given)	1.57 µM	> 100 µM	0.462 µM	2.18 µM	0.268 µM	0.782 µM	0.644 µM	6.28 µM	0.394 µM	1.4 µM	0.134 µM	0.289 µM	0.204 µM	0.477 µM	0.626 µM	1.66 µM	0.231 µM	0.491 µM	3.48 µM	> 21.1 µM
CCCCOC(=O)c1ccc(N)cc1	6.66 µM	> 100 µM	67.2 µM	> 100 µM	29.8 µM	> 100 µM	34.8 µM	> 100 µM	34.9 µM	> 100 µM	8.74 µM	> 100 µM	> 100 µM	> 100 µM	32.1 µM	> 100 µM	34.3 µM	> 100 µM	> 100 µM	> 100 µM
O=c1[nH]c2ccccc2c2nc3ccccc3n12		> 100 µM		> 100 µM		> 100 µM		> 100 µM		> 100 µM		> 100 µM		> 100 µM		> 100 µM		> 100 µM		49.7 µM
COC(=O)C1=C(O)[C@H](C(=O)OC)C2(O)C(C(=O)OC)[C@H](c3ccc(OC(=O)C(C)c4ccccc4)cc3)C[C@@H]1[C@@H]2C(=O)OC (stereo not given in full)	19.4 µM	> 50 µM	18.8 µM	> 50 µM	10.6 µM	31.4 µM	> 50 µM	> 50 µM	10.4 µM	25.1 µM	29.5 µM	> 50 µM	12.5 µM	29.2 µM	13.7 µM	36.3 µM	19.4 µM	> 50 µM	33.3 µM	> 50 µM
